Experimental findings from patent publication US20250019357A1, “[…] MORPHIC FORMS AND MIXTURES FOR THE TREATMENT OF MENTAL DISORDERS OR MENTAL ENHANCEMENT” (TACTOGEN INC, priority 2021, published 2025) are described below.

The test system of data set [1] is NET. Briefly: In vitro rat synaptosome norepinephrine release assay (Examples 9, 58). The data set is classed as biochemical. The settings on record: rat synaptosomes. An excerpt:
FIG. 8C is a graph showing results from in vitro rat synaptosome dopamine and norepinephrine release assays. […] Previously presented serotonin results are included for comparison. […] Details and procedural information for this assay are described in Example 9. The x-axis is the log [dose] concentration measured in molar and the y-axis is the [^3H]-labeled 5-HT release measured in percent.
FIG. 178 is a graph showing results from in vitro rat synaptosome dopamine and norepinephrine release assays. […] Previously presented serotonin results are included for comparison. […] Details and procedural information for this assay are described in Example 58. The x-axis the log [dose] concentration measured in Molar units and the y-axis is the [^3H]-labeled 5-HT release measured in percent of maximum produced by the comparison releaser.

Data set [2] has as its target T1, SERT (Rattus norvegicus (Rat), UniProt P31652). Nature of the data set: In vitro rat synaptosome serotonin release (efflux) assay (Examples 9, 58). The data set is classed as biochemical. The settings on record: rat synaptosomes. The text has this: FIG. 7B is a graph showing results from an in vitro rat synaptosome serotonin release assay. […] Details and procedural information for this assay are described in Example 9. The x-axis is the log [dose] concentration measured in molar and the y-axis is the [^3H]-labeled 5-HT release measured in percent.
FIG. 177 is a graph showing results from an in vitro rat synaptosome serotonin release assay. […] Details and procedural information for this assay are described in Example 58. The x-axis the log [dose] concentration measured in molar and the y-axis is the [^3H]-labeled 5-HT release measured in percent.

For data set [3], the target named is 5-HT2A receptor (Homo sapiens (Human), UniProt P28223). Nature of the data set: 5-HT2A agonist activity (Example 6). The data set is classed as cell-based.
Data set [4] concerns the target hTAAR1 (human trace amine-associated receptor) (Homo sapiens (Human), UniProt Q96RJ0). Nature of the data set: Interaction with hTAAR1. The settings on record: concentrations up to 60 μM.
Data set [5] concerns the target T1, SERT. Nature of the data set: In vitro rat synaptosome serotonin uptake inhibition assay (Examples 9, 58). The settings on record: rat synaptosomes. Type of data set: biochemical. An excerpt: FIG. 7A is a graph showing results from an in vitro rat synaptosome serotonin uptake inhibition assay. […] Details and procedural information for this assay are described in Example 9. The x-axis is the log [dose] concentration measured in molar and the y-axis is the [^3H]-labeled 5-HT reuptake measured in percent.
FIG. 176 is a graph showing results from an in vitro rat synaptosome serotonin uptake inhibition assay. […] Details and procedural information for this assay are described in Example 58. The x-axis the log [dose] concentration is measured in Molar units and the y-axis is the [^3H]-labeled 5-HT reuptake measured in percent of maximum produced by the comparison releaser.

Data set [6] has as its target 5-HT2B (Homo sapiens (Human), UniProt P41595). Briefly: 5-HT2B antagonist assay (DiscoveRx Calcium NWPLUS, FLIPR). The data set is classed as cell-based. How it is done: 5-HT2A and 5-HT2B Agonist and Antagonist Assays
The DiscoveRx Calcium NWPLUS Assay was used for detection of changes in intracellular calcium as signaled by an increase of dye fluorescence in cells expressing 5-HT2A receptors. Signal was measured on a fluorescent plate reader equipped with fluidic handling capable of detecting rapid changes in fluorescence upon compound stimulation.
To conduct the assay, cell lines were expanded from freezer stocks according to standard procedures. Cells (10,000cells/well) were seeded in a total volume of 50 μL ([…]) into black-walled, clear-bottom, Poly-D-lysine coated 384-well microplates and incubated at 37-C for the appropriate time prior to testing. DMSO concentration for all readouts was <0.2%. […]
Compound agonist activity was measured on a FLIPR Tetra. Calcium mobilization was monitored for 2 minutes with a 5 second baseline read. FLIPR read-Area under the curve was calculated for the two minute read. Compound activity was analyzed using CBIS data analysis suite (ChemInnovation, CA). Percentage activity was calculated as 100%×(mean RFU of test sample−mean RFU of vehicle control)/(mean MAX RFU control ligand −mean RFU of vehicle control). For antagonist mode assays, percentage inhibition was calculated as 100%×(1−(mean RFU of test sample−mean RFU of vehicle control)/(mean RFU of EC80 control−mean RFU of vehicle control)). […]

The subject of data set [7] is Swiss CD1 mice. Briefly: Marble burying test. The data set is classed as in vivo. The settings on record: enantiomers given simultaneously.
Data set [8] is described as follows: Marble burying assay (Example 5). Type of data set: in vivo. The settings on record: individual enantiomers vs the racemic mixture. An excerpt:
FIG. 2 is a chart showing results from the marble burying assay to measure decreased anxiety and neuroticism resulting from treatment with S-5-MAPB, R/S-5-MAPB, and R-5-MAPB. […] The y-axis gives the compound and dose. Error bars indicate 95% confidence intervals. Details and procedural information for this assay are described in Example 5.

Data set [9] in a line: Human self-reported effects of non-racemic 5-MAPB (Good, Bad, Open ratings). The data set is classed as in vivo. The settings on record: one healthy human, 54 mg total 5-MAPB HCl oral in two halves 1 hour apart; session maximum averaged (N=2, 13% S N=1). As for the experimental part: The effects of non-racemic 5-MAPB HCl were tested by a healthy human individual at four different ratios of enantiomers plus the racemate as a control: • 54 mg S and 0 mg R (100% S) • 47 mg S and 7 mg R (about 87% S) • 36 mg S and 18 mg R (about 67% S) • 27 mg S and 27 mg R (about 50% S) • 7 mg S and 47 mg R (about 13% S)
Two trials were carried out at each ratio, except for 13% S where only one was conducted. Trials were at least 72 h apart.
5-MAPB HCl was dissolved in 1.5 ml distilled water and consumed in two halves, separated by 1 hour. Starting at 3 hours after administration, tablets of 250 mg ascorbic acid and capsules of 300 mg alpha lipoic acid were taken ad libitum (approximately every hour for a total of 4 administrations).
Measurements were made approximately every 2 hours until post 6 hours and the maximum ratings per session were analyzed. Additionally, an index of good drug effects versus emotional openness, calculated as (Open−Good)/(200, the theoretical maximum of Open+ Good), was constructed at each time point and the maximum analyzed. In healthy volunteers, Good Ratings can be considered a predictor of abuse liability. Accordingly, this index can be used as an indicator of the balance of a therapeutic effect (emotional openness) vs abuse liability.
Historic data of two trials 50 mg RS-5-MAPB Cl from the same individual were also included in the analysis for comparison.
Table 24 below indicates maximums for individual measures and for the open vs good index, averaged from all sessions (N=2, except for 13% S-5-MAPB where N=1). Qualitatively, all conditions produced subtle emotional effects, including decreases in negative affect and increases in stability of mood, without sensory distortion.

In data set [10] the test system is Caco-2 cell line. Briefly: In vitro absorption assay, Caco-2 permeability. Type of data set: in vitro ADME. As for the experimental part:
(§1) The permeability of 10 μM RS-5-MAPB in Caco-2, MDCKII, and MDR1-MDCKII cell line assays was assessed (Table 6). Both the AB and BA directions with and without the addition of a Pgp-specific inhibitor (verapamil), a MRP1 inhibitor (MK571), and an ATP-binding cassette subfamily G member 2 (ABCG2/BCRP) inhibitor (KG143) were measured. Trials were repeated twice, and values averaged.

Data set [11] concerns MDCKII cell line. Briefly: In vitro absorption assay, MDCKII permeability. The data set is classed as in vitro ADME. To be noted: pH 7.4/7.4, 10 μM. As for the experimental part:
as §1

The test system of data set [12] is MDR1-MDCKII cell line. Nature of the data set: In vitro absorption assay, MDR1-MDCKII permeability. Type of data set: in vitro ADME. As for the experimental part:
as §1

Data set [13] deals with human DAT (Homo sapiens (Human), UniProt Q01959). Briefly: hDAT release assay in CHO cells ([3H]dopamine). To be noted: read-out: EC50 DAT (Mean ± SEM), CHO cells expressing hDAT.
Data set [14] has as its target human SERT (Homo sapiens (Human), UniProt P31645). Briefly: hSERT release assay in CHO cells ([3H]serotonin). To be noted: read-out: EC50 SERT (Mean ± SEM), CHO cells expressing hSERT.
Setting [15] is: Caco-2, pH 7.4/7.4 + KO143, 10 μM.
Where [16] appears, read: Caco-2, pH 7.4/7.4 + verapamil, 10 μM.

Chain of 5-HT2B (P41595 whole entry): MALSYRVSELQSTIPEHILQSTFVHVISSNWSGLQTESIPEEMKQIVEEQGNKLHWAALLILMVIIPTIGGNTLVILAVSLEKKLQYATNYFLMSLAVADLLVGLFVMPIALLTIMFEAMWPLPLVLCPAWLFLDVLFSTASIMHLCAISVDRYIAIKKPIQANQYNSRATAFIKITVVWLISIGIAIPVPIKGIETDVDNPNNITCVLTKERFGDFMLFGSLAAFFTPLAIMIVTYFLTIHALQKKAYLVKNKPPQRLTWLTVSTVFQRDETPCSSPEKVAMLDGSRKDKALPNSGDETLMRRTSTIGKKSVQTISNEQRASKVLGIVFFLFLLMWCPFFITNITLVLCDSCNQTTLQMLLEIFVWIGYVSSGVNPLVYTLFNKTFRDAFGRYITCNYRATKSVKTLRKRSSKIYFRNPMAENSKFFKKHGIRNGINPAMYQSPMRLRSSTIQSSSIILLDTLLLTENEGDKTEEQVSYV

In the case of `CCC(Cc1ccc2ccoc2c1)NC` (racemic) [Pattern 6-MBPB, 6-MBPB], the norepinephrine release result in data set [1] is “only partial releaser of norepinephrine”. In addition, in data set [2], the “[3H]-labeled 5-HT release” value is given as 5-HT releaser. Moreover, in [3], the 5-HT2A agonist activity result was “poor agonist of 5-HT2A”. Moreover, the “interactions with hTAAR1” value in data set [4] is recorded as “lacks interactions with hTAAR1”.

Usually IC50 stands for the concentration that gives 50% inhibition. Regarding `CCC(Cc1ccc2ccoc2c1)NC` (racemic) [RS-6-MBPB], the “[3H]-labeled 5-HT reuptake (serotonin uptake inhibition)” value in data set [5] is “rapidly increases extracellular serotonin by inhibiting reuptake”. Besides, in data set [6], the IC50 is 3080 nM. Moreover, the “[3H]-labeled 5-HT release” value in data set [2] is “rapidly increases extracellular serotonin by stimulating release”.

As for `CNC(C)Cc1ccc2occc2c1` (stereo not drawn) [Pattern 5-MAPB, 5-MAPB], the “marble burying: interaction between enantiomers” value in [7] is recorded as “strong non-additive interaction”. In data set [8], the “anxiolytic effect, percent of marbles left unburied versus placebo” value is recorded as “non-additive effects of the two enantiomers”.

What is called EC50 is the concentration at which the effect is half-maximal. On to `CNC(C)Cc1ccc2occc2c1` (stereo not drawn) [RS-5-MAPB], for which the “Bad (bad drug effects), maximum 0-100 rating” value in data set [9] is 10%. For the same molecule, the “Good (good drug effects), maximum 0-100 rating” value in data set [9] is reported as 50%. In data set [9], the “Open (emotional openness), maximum 0-100 rating” value is 45%. The “absorption (conclusion of the permeability assays)” value in [10] (Caco-2, MDCKII and MDR1-MDCKII assays taken together) is “well absorbed”. The “Permeability (Papp) A-B” value is 75.3 10^−6 cm/s in data set [10] (setting [15]); 37.6 10^−6 cm/s in data set [10] (setting [16]); 81 10^−6 cm/s in data set [10] (Caco-2, pH 7.4/7.4, 10 μM); 82.1 10^−6 cm/s in [11]; 42.8 10^−6 cm/s in data set [12] (pH 7.4/7.4 + verapamil, 10 μM); 68.7 10^−6 cm/s in data set [12] (pH 7.4/7.4, 10 μM). Also, the “Permeability (Papp) B-A” value is given as 14 10^−6 cm/s in data set [10] (setting [15]); 23 10^−6 cm/s in [10] (setting [16]); 29.1 10^−6 cm/s in data set [10] (Caco-2, pH 7.4/7.4, 10 μM); 19.8 10^−6 cm/s in data set [11]; 30.4 10^−6 cm/s in [12] (pH 7.4/7.4 + verapamil, 10 μM); 20.5 10^−6 cm/s in [12] (pH 7.4/7.4, 10 μM). Besides, the results for the EC50 in [13] and in data set [14] were 459 ± 48 nM and 90 ± 16 nM, respectively.
